Assay results: patent publication US9738612B2, “Methylacryloyl benzimidazolone derivative and anti-tumour use thereof” (SHANGHAI NATURE STANDARD R&D AND BIOTECH CO., LTD, priority 2014, dated 2017)
“Also recorded” adds a separate entry of the source.

What was measured:
Type in all cases: cell-based
[1] = tested on: Akt phosphorylation at S473 site; experiment: ELISA (double antibody sandwich), Akt phosphorylation in IGF-1 stimulated A549 cells; conditions: for Inhibitory rate % (Akt phosphorylation): drug 1 h, then IGF-1 10 min, p-Akt (S473) ELISA; for Effect on Akt phosphorylation compared with positive control: ELISA, in words
Protocol: Establishment of ELISA screening method using a double antibody sandwich method: A549 cells (a lung cancer cell line, purchased from Chinese Academy of Sciences, Shanghai Institutes for Biological Sciences Cell Resource Center) were inoculated at certain densities in 12-well plates, and incubated at 37° C. in a carbon dioxide incubator overnight to let cells attach the plate wells. Meanwhile the Akt antibody was inoculated at a specific concentration in a highly-adsorbed microplate, and placed in a refrigerator at 4° C. The 12-well plates were washed with sterile PBS three times, then into which serum-free F12 was added, and incubated for 24 hours in a incubator. Then MK2206, Triciribine and FD series drugs were added into 12-well plates and worked for one hour, followed by adding 100 ng of IGF-1 and being stimulated for 10 minutes. The 12-well plates were washed with pre-cooled PBS three times, and 100 μl of RIPA lysis buffer was added into each well to lyse cells on ice for 20 minutes. The lysates were collected and added to the appropriate microplate (purchased from Santa Cruz biotechnology), which were shaken on ice. A p-Akt (S473) antibody (purchased Cell Signaling Technology, Inc.) was added into microplates. After shaking for a period of time, an anti-rabbit antibody (purchased from Cell Signaling Technology, Inc.) was added. The reaction was terminated with 2M sulfuric acid after TMB developed. Absorbance at 450 nm was measured on a microplate reader, and the inhibitory rate=[…], among which ODsample refers to the absorbance of the sample well, ODIGF refers the absorbance of the well with IGF only, OD—IGF refers the absorbance of the well withoutIGF.

[2] = tested on: A549; experiment: Sulforhodamine B proliferation; conditions: SRB; for inhibition at 10 µM: Homo sapiens, A549, 72 h, read-out: Inhibitory rate % (A549); for Inhibitory rate % (A549): 10 μM, 72 h
Protocol: (§1) At a certain density cells were seeded in 96-well plates, and adhered overnight. The medium was discarded after incubating cells with compounds to be tested for 72 h, then 100μL/well trichloroacetic acid (TCA) was added to fix cells at 4° C. for 2h. After that the fixing solution was discarded. Cells were gently washed 5 times with distilled water, dried at room temperature. Cells were stained with 4 mg/mL SRB staining solution (100 μL/well) at room temperature for 15min. The staining solution was discarded, and cells were washed five times with 1% acetic acid (HAC) and dried at room temperature. To the plate tris base buffer (10 mM) was added at 150 μL/well and placed at room temperature for 15min. The OD values were measured at 540 nm wavelength in a microplate reader. Inhibitory rate (%)=(OD valuecontrol wells−OD valuedrugs treated wells)/OD valuecontrol wells×100%.
(§2) The results were shown in Table 2, the working concentrations of MK2206 and compounds of FD series were 10 μM. As shown in this Table, PC-3 is a prostate cancer cell line purchased from Cell Resource Center of Shanghai Institutes for Biological Sciences, Chinese Academy of Sciences, A549 is a lung cancer cell line purchased from Cell Resource Center of Shanghai Institutes for Biological Sciences, Chinese Academy of Sciences, and SGC-7901 is a gastric cancer cell line purchased from Cell Resource Center of Shanghai Institutes for Biological Sciences, Chinese Academy of Sciences.

[3] = tested on: PC-3; experiment: Sulforhodamine B proliferation; conditions: SRB; for inhibition at 10 µM: Homo sapiens, PC-3, 72 h, read-out: Inhibitory rate % (PC-3); for inhibition at 10 µM / Inhibitory rate % (PC-3): 72 h
Protocol: as §1, §2

[4] = tested on: SGC-7901; experiment: Sulforhodamine B proliferation; conditions: SRB; for inhibition at 10 µM: Homo sapiens, SGC-7901, 72 h, read-out: Inhibitory rate % (SGC-7901); for Inhibitory rate % (SGC-7901): 10 μM, 72 h
Protocol: as §1, §2

[5] = tested on: p-Akt (S473); experiment: Western blot, p-Akt (S473) in IGF stimulated A549 cells; conditions: compound 1 h, IGF 10 min, FIG. 1, in words
Protocol: A549 cells were seeded at a density of 2×10^5 cells/well into 12-well plates, and adhered overnight. Then the medium was discarded and the plates were washed three times with normal saline. After that, fresh serum-free medium was added to starve cells for 24 hours, compounds to be tested were added to work for 1 h, then IGF-I was added to stimulated for 10 min, followed byadding a lysis buffer on ice to lyse for half an hour. The cell lysates were collected and centrifuged at 20000×g at 4° C. for 10min, then the supernatant was collected. Protein was quantified by MicroBCA protein quantification Assay kit, and the protein concentration was normalized. The supernatant was mixed with the 4×SDS sample buffer [200 mM Tris.Cl (pH 6.8), 400 mM DTT, 8% SDS, 0.4% bromophenol blue, 40% glycerol] and boiled for 15 min. After cooling at room temperature, aliquots were loaded on polyacrylamide gel, and electrophoresed in Tris-glycine electrophoretic buffer (25 mM Tris, 250 mM glycine, 0.1% SDS) at 80-120 V for about 2 h. Proteins were transferred from the gel to a nitrocellulose membrane by a semi-dry method. Transferring conditions: transfer buffer (39 mM glycine, 48 mM Tris base, 0.037% SDS, 20% methanol); transfer current 25 mA; transfer time 2 h. After transfer, Ponceau S staining was used to determine the transfer efficiency and the positions of protein bands on the nitrocellulose membranes. After labeling the membrane was blocked with a blocking solution containing 5% nonfat-dried milk [5% nonfat-dried milk, 20 mM Tris-HCl (pH 7.2-7.4), 150 mM NaCl, 0.1% (v/v) Tween 20] on a shaker at room temperature for 2 h. To the system were added specific primary antibodies and incubated overnight at 4° C. Then the membrane was washed with PBST solution [20 mM Tris-HCl (pH 7.2-7.4), 150 mM NaCl, 0.1% (v/v) Tween 20] at room temperature three times, 15 min/time. To the system were added Horseradish peroxidase-labeled secondary antibodies and incubated at room temperature on a shaker with gentle shaking for 2 h. After washing with PBST solution three times, the system was exposed, developed and fixed after SuperSignal West Dura Chemiluminescent Substrate (Pierce Inc, Rochford, IL) was used for color. The results were shown in FIG. 1, in which there were 12 lanes the band shade and size of which indicated the corresponding protein concentration levels. […] MK2206 was an Akt phosphorylation inhibitor developed by Merck, and was currently in phase II clinical trial, showing good therapeutic effects in a variety of tumors.

C=C(C)n1c(=O)n(C(=O)CCC)c2cc([N+](=O)[O-])ccc21 [FD10]
Inhibitory rate % (Akt phosphorylation) [1]: 17% | inhibition at 10 µM [2]: 5.3% | inhibition at 10 µM [3]: 13.8% | inhibition at 10 µM [4]: 28.1%

C=C(C)n1c(=O)n(C(=O)CCCCCCC)c2cc([N+](=O)[O-])ccc21 [FD16]
Inhibitory rate % (Akt phosphorylation) [1]: 64% | inhibition at 10 µM [2]: 23.2% | inhibition at 10 µM [3]: 7.1% | inhibition at 10 µM [4]: 12.4%

C=C(C)n1c(=O)n(C(=O)CCCCC)c2cc([N+](=O)[O-])ccc21 [FD14]
Inhibitory rate % (Akt phosphorylation) [1]: 34% | inhibition at 10 µM [2]: 13.1% | inhibition at 10 µM [3]: 9% | inhibition at 10 µM [4]: 25.5%

C=C(C)n1c(=O)n(C(=O)CCC)c2cc([N+](=O)[O-])ccc21 [FD12]
Effect on Akt phosphorylation compared with positive control [1]: comparable effects with that of Triciribine | Inhibitory rate % (Akt phosphorylation) [1]: 48% | Inhibitory rate % (A549) [2]: 3.8% | Inhibitory rate % (PC-3) ([3]; 10 μM): 8.2% | Inhibitory rate % (SGC-7901) [4]: 19.8%

C=CC(=O)n1c(=O)n(C(=C)C)c2cc([N+](=O)[O-])ccc21 [FD5]
Inhibitory rate % (Akt phosphorylation) [1]: 20% | inhibition at 10 µM [2]: 22.3% | inhibition at 10 µM [3]: 29.1% | inhibition at 10 µM [4]: 7.3%

C=C(C)C(=O)n1c(=O)n(C(=C)C)c2cc([N+](=O)[O-])ccc21 [FD7]
Inhibitory rate % (Akt phosphorylation) [1]: 6% | inhibition at 10 µM [2]: 34.1% | inhibition at 10 µM [3]: 22.6% | inhibition at 10 µM [4]: 34.1%

C=C(C)n1c(=O)n(C(C)=O)c2ccc([N+](=O)[O-])cc21 [FD2]
Effect on Akt phosphorylation compared with positive control [1]: comparable effects with that of Triciribine | Inhibitory rate % (Akt phosphorylation) [1]: 51% | Inhibitory rate % (A549) [2]: 3.4% | Inhibitory rate % (PC-3) ([3]; 10 μM): 32.4% | Inhibitory rate % (SGC-7901) [4]: 23.4%

C=C(C)n1c(=O)n(C(C)=O)c2ccc([N+](=O)[O-])cc21 [FD1]
Inhibitory rate % (Akt phosphorylation) [1]: 85% | Effect on Akt phosphorylation level (p-Akt S473 band) [5]: significantly reduce the Akt phosphorylation level; also recorded: comparable effects to MK2206 | Inhibitory rate % (A549) [2]: 9.6% | Inhibiting effect on PC-3 tumor cells (PTEN deficient) proliferation relative to other lines ([3]; 10 μM, in words): more significant | inhibition at 10 µM [3]: 51.1% | Inhibitory rate % (SGC-7901) [4]: 56.4%

C=C(C)n1c(=O)n(C(=O)CCC)c2ccc([N+](=O)[O-])cc21 [FD11]
Inhibitory rate % (Akt phosphorylation) [1]: 11% | Inhibitory rate % (A549) [2]: 2.4% | Inhibitory rate % (PC-3) ([3]; 10 μM): 19.2% | Inhibitory rate % (SGC-7901) [4]: 13.6%

C=C(C)n1c(=O)n(C(=O)CCCCC)c2ccc([N+](=O)[O-])cc21 [FD13]
Effect on Akt phosphorylation compared with positive control [1]: comparable effects with that of Triciribine | Inhibitory rate % (Akt phosphorylation) [1]: 56%

NC1(c2ccc(-c3nc4ccn5c(=O)[nH]nc5c4cc3-c3ccccc3)cc2)CCC1 [MK2206, reference compound]
Inhibitory rate % (Akt phosphorylation) [1]: 92% | Effect on Akt phosphorylation level (p-Akt S473 band) [5]: significantly reduce the Akt phosphorylation level; also recorded: significantly inhibited the increase of Akt phosphorylation level stimulated by IGF | Inhibitory rate % (A549) [2]: 61.0% | Inhibitory rate % (PC-3) ([3]; 10 μM): 1.2% | Inhibitory rate % (SGC-7901) [4]: 24.3%

C=CC(=O)n1c(=O)n(C(=C)C)c2ccc([N+](=O)[O-])cc21 [FD6]
Inhibitory rate % (Akt phosphorylation) [1]: 10% | inhibition at 10 µM [2]: 18.2% | inhibition at 10 µM [3]: 24.2% | inhibition at 10 µM [4]: 30.4%

C=C(C)n1c(=O)n(C(=O)c2ccccc2C)c2cc([N+](=O)[O-])ccc21 [FD18]
Inhibitory rate % (Akt phosphorylation) [1]: 42% | inhibition at 10 µM [2]: 11.5% | inhibition at 10 µM [3]: 32.1% | inhibition at 10 µM [4]: 44.2%

C=C(C)C(=O)n1c(=O)n(C(=C)C)c2ccc([N+](=O)[O-])cc21 [FD8]
Inhibitory rate % (Akt phosphorylation) [1]: 3% | inhibition at 10 µM [2]: 2.8% | inhibition at 10 µM [3]: 13.4% | inhibition at 10 µM [4]: 28%

C=C(C)n1c(=O)n(C(=O)CCCCCCC)c2ccc([N+](=O)[O-])cc21 [FD15]
Inhibitory rate % (Akt phosphorylation) [1]: 42% | inhibition at 10 µM [2]: 33.3% | inhibition at 10 µM [3]: 4.6% | inhibition at 10 µM [4]: 20.1%

C=C(C)n1c(=O)n(C(=O)c2ccccc2C)c2ccc([N+](=O)[O-])cc21 [FD17]
Inhibitory rate % (Akt phosphorylation) [1]: 38% | inhibition at 10 µM [2]: 31.4% | inhibition at 10 µM [3]: 20% | inhibition at 10 µM [4]: 40.5%

C=C(C)n1c(=O)n(C(=O)CC)c2cc([N+](=O)[O-])ccc21 [FD4]
Effect on Akt phosphorylation compared with positive control [1]: comparable effects with that of Triciribine | Inhibitory rate % (Akt phosphorylation) [1]: 50% | inhibition at 10 µM [2]: 7.2% | inhibition at 10 µM [3]: 33.9% | inhibition at 10 µM [4]: 22%

C=C(C)n1c(=O)n(C(=O)CCC)c2ccc([N+](=O)[O-])cc21 [FD9]
Inhibitory rate % (Akt phosphorylation) [1]: 22% | Inhibitory rate % (A549) [2]: 1.1% | inhibition at 10 µM [3]: 26.1% | inhibition at 10 µM [4]: 26.4%
